Data published in article PMC7349874, “High Content Screening Using New U2OS Reporter Cell Models Identifies Harmol Hydrochloride as a Selective and Competitive Antagonist of the Androgen Receptor” (Cells, 2020).
Counter-ions that a name gives are not always drawn. Like-named read-outs stand apart in the source and are kept apart here.

Legend:
[1] = molecular target: T1, full-length wild-type AR (hAR) (Homo sapiens, UniProt P10275); experiment: Transactivation (luciferase) assay in U2OS-hAR-ARE-Luc reporter cells, screen and validation; assay type: cell-based; conditions: for Results of 1st screen on AR: 0.3, 1, 3, 10 µM, 16 h, hit = AR transcriptional activity changed by more than 50% dose-dependently, <20% effect in control cells; for Nature of AR inhibition (competitive or non-competitive): 1 nM versus 100 nM R1881
T1 sequence (P10275 1-920): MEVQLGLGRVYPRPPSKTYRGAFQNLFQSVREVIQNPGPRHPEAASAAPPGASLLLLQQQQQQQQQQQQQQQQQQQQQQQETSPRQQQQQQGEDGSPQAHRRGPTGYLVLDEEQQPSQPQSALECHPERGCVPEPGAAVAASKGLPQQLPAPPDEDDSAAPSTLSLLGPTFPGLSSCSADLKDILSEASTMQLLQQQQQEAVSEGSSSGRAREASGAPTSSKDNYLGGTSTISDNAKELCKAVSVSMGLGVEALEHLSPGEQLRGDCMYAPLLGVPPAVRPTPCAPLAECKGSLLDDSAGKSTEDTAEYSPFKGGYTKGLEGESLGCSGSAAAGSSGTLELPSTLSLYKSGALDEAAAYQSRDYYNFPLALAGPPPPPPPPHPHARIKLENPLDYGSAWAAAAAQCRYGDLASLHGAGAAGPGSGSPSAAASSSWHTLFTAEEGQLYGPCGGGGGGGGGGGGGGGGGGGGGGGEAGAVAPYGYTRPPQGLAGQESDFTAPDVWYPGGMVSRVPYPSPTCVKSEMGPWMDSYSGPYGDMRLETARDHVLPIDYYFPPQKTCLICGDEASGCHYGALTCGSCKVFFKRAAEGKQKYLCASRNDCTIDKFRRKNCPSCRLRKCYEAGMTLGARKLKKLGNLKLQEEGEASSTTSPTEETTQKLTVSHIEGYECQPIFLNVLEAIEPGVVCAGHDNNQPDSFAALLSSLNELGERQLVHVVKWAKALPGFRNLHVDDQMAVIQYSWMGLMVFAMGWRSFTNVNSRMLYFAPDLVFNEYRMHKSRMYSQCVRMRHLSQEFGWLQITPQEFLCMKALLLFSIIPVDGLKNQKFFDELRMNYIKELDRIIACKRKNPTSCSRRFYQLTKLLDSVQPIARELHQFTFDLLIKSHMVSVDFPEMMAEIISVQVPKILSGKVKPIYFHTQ
Description: U2OS-hAR-ARE(Rad9)-Luc and U2OS-hARv7-ARE(PB)-Luc were then used to screen the Prestwick phytochemical library®, containing 320 natural compounds, at four concentrations (0.3, 1, 3, 10 µM) in duplicate.

[2] = test system: U2OS-ARE-Luc control cells; experiment: Luciferase activity in U2OS-ARE-Luc control cells; conditions: validation, up to 3 µM, 16 h

Compound | Results of 1st screen on AR [1] | other results
COc1ccc(-c2cc(=O)c3c(O)cc(O)cc3o2)cc1 [Acacetin] | No effect | 
C[C@@H]1O[C@@H](O[C@H]2C(=O)c3c(O)cc(O)cc3O[C@@H]2c2ccc(O)c(O)c2)[C@H](O)[C@H](O)[C@H]1O [Astilbin] | No effect | 
COc1ccc2cc3n(c(=O)c2c1OC)CCc1cc2c(cc1-3)OCO2 [Berlambine] | No effect | 
C=C(C)[C@@H]1CC[C@]2(C(=O)O)CC[C@]3(C)[C@H](CC[C@@H]4[C@@]5(C)CC[C@H](O)C(C)(C)[C@@H]5CC[C@]43C)[C@@H]12 [Betulinic acid] | No effect | 
NCCC(O)C(=O)NC1CC(N)C(OC2OC(CN)C(O)[C@H](O)[C@@H]2N)[C@H](OC2O[C@H](CO)[C@@H](O)[C@@H]2O)[C@@H]1O.O=S(=O)(O)O.O=S(=O)(O)O (stereo partly shown) [Butirosin disulfate salt] | No effect | 
NC(N)=NOCC[C@H](N)C(=O)O.O.O=S(=O)(O)O [Canavanine sulfate monohydrate (L,+)] | No effect | 
COc1cc(O)cc(O)c1C(=O)/C=C/c1ccccc1 [Cardamonin] | No effect | 
COc1c2c(cc3oc(CO)cc(=O)c13)O[C@H](C(C)(C)O)C2 [Cimifugin] | No effect | 
C[C@H]1[C@H]2CC[C@H]3[C@@H]4CC=C5C[C@@H](N(C)C)CC[C@]5(C)[C@H]4CC[C@]23CN1C [Conessine] | No effect | 
O=c1c(-c2ccc(O)cc2)coc2cc(O[C@@H]3O[C@H](CO)[C@@H](O)[C@H](O)[C@H]3O)cc(O)c12 [Genistin] | No effect | 
CN(C)Cc1c[nH]c2ccccc12 [Gramine] | No effect | 
COc1ccc2c3c([nH]c2c1)C(C)=NCC3 [Harmaline hydrochloride dihydrate] | No effect | Results of 1st screen on AR ([1]; listed as harmaline): inactive
CC1=NCCc2c1[nH]c1cc(O)ccc21 [Harmalol hydrochloride dihydrate] | No effect | Results of 1st screen on AR ([1]; listed as harmalol): inactive
Cc1nccc2c1[nH]c1ccccc12 [Harmane hydrochloride] | Inhibition | Results of confirmatory screen (validation of AR inhibition) [1]: Not confirmed; Results of 1st screen on AR ([1]; listed as harmane): active inhibitors of AR transcriptional activity
COc1ccc2c(c1)[nH]c1c(C)nccc12 [Harmine hydrochloride] | Inhibition | Results of confirmatory screen (validation of AR inhibition) [1]: Confirmed; Nature of AR inhibition (competitive or non-competitive) [1]: non-competitive manner; Results of 1st screen on AR ([1]; listed as harmine): active inhibitors of AR transcriptional activity; Results of confirmatory screen (validation of AR inhibition) ([1]; listed as harmine): could impair the transcriptional activity of AR; Effect on luciferase activity in control cells [2]: no effect
COc1ccc([C@@H]2CC(=O)c3c(O)cc(O[C@@H]4O[C@H](CO[C@@H]5O[C@@H](C)[C@H](O)[C@@H](O)[C@H]5O)[C@@H](O)[C@H](O)[C@H]4O)cc3O2)cc1O [Hesperidin] | No effect | 
Br.CC[C@H]1CN2CCC1C[C@H]2[C@H](O)c1ccnc2ccc(OC)cc12.O (stereo partly shown) [Hydroquinine hydrobromide hydrate] | No effect | 
O=C1Nc2ccccc2/C1=C1/Nc2ccccc2C1=O [Indirubin] | No effect | 
CC1=C2C(=O)[C@H]3[C@@H](CC=C4C[C@@H](O)CC[C@@]43C)[C@@H]2CC[C@]12O[C@@H]1C[C@H](C)CN[C@H]1[C@H]2C [Jervine] | No effect | 
O=C1CCC[C@@H]2[C@H]3CCCN4CCC[C@@H](CN12)[C@@H]34 [Matrine] | No effect | 

Compound | Results of 1st screen on AR [1] | other results
C=C(C)[C@@H]1[C@H]2OC(=O)[C@@H]1[C@]1(O)C[C@H]3O[C@]34C(=O)O[C@H]2[C@]14C [Picrotoxinin] | No effect | 
CC[C@@H](C)C(=O)O[C@H]1[C@H](O)[C@H]2[C@@H](CN3C[C@@H](C)CC[C@H]3[C@@]2(C)O)[C@@H]2C[C@]34O[C@]5(O)[C@@H](OC(=O)[C@@](C)(O)CC)CC[C@@]3(C)[C@@H]5[C@@H](OC(C)=O)[C@@H](OC(C)=O)[C@H]4[C@@]21O [Protoveratrine A] | No effect | 
CN1[C@@H]2CCC[C@H]1CC(=O)C2.Cl [Pseudopelletierine hydrochloride] | No effect | 
O=c1c2ccccc2nc2n1CCc1c-2[nH]c2ccccc12 [Rutaecarpine] | No effect | 
C[C@@H]1O[C@@H](OC[C@H]2O[C@@H](Oc3c(-c4ccc(O)c(O)c4)oc4cc(O)cc(O)c4c3=O)[C@H](O)[C@@H](O)[C@@H]2O)[C@H](O)[C@H](O)[C@H]1O [Rutin] | No effect | 
OCc1ccccc1O[C@@H]1O[C@H](CO)[C@@H](O)[C@H](O)[C@H]1O [Salicin] | No effect | 
C[C@@H]1NCCc2cc(O)c(O)cc21 [Salsolinol hydrobromide] | No effect | 
COc1ccc2c(OC)c3ccoc3nc2c1OC [Skimmianine] | No effect | 
C[C@@H]1CC[C@@]2(NC1)O[C@H]1C[C@H]3[C@@H]4CC=C5C[C@@H](O)CC[C@]5(C)[C@H]4CC[C@]3(C)[C@H]1[C@@H]2C [Solasodine] | No effect | 
C[N+]1(C)CCC[C@H]1C(=O)[O-].Cl [Stachydrine hydrochloride] | No effect | 
O=c1cc(-c2ccc(O)cc2)oc2c([C@@H]3O[C@H](CO)[C@@H](O)[C@H](O)[C@H]3O)c(O)cc(O)c12 [Vitexin] | No effect | 
C[C@]12CC[C@H](O)C[C@H]1CC[C@@H]1[C@@H]2CC[C@]2(C)[C@@H](C3=CC(=O)OC3)CC[C@]12O [digitoxigenin] | active inhibitors of AR transcriptional activity | 
Cc1c2ccncc2c(C)c2c1[nH]c1ccccc12 [ellipticine] | active inhibitors of AR transcriptional activity | Nature of AR inhibition (competitive or non-competitive) [1]: non-competitive manner; Results of confirmatory screen (validation of AR inhibition) ([1]; six concentrations, absence or presence of 1 nM or 100 nM R1881): could impair the transcriptional activity of AR; Effect on luciferase activity in control cells [2]: no effect
C=CCc1ccc(O)c(-c2ccc(O)c(CC=C)c2)c1 [honokiol] | active inhibitors of AR transcriptional activity | 
COc1ccc2[nH]c3c(c2c1)CCN=C3C [methoxy-6-harmalan] | inactive | 
CN1CCc2cc3c(c4c2C1Cc1ccccc1-4)OCO3 (stereo not shown) [remerine] | active inhibitors of AR transcriptional activity | 
Evodiamine | No effect | 
Foliosidine | No effect | 
Retrorsine | No effect | 
strophantin | active inhibitors of AR transcriptional activity | 
